Results: patent publication US20250059186A1, “Tricyclic Fused Heterocyclic PDE3/4 Dual Inhibitor and Use Thereof” (XIZANG HAISCO PHARMACEUTICAL CO., LTD., priority 2021, published 2025)
Where two headings read alike, the source gives them in different places. Each block holds one compound with its values, some of them ahead of it.

Key:
PDE3A recombinant enzyme = PDE3A recombinant enzyme (Homo sapiens (Human), UniProt Q14432); assay: In vitro assay of inhibitory activity against PDE 3A enzyme (FP, FAM-cAMP); assay type: biochemical
Description: 1. In Vitro Assay of the Inhibitory Activity of Compounds Against PDE 3A and PDE 4B2 Enzymes
• Envision 2104 Multilabel Reader (PerkinElmer) • Black 96-well Plate (Cat #6005540, PerkinElmer) • PDE3A Assay Kit (BPS, Cat. 79736), PDE4B2 Assay Kit (BPS, Cat. 60343) • PDE3A recombinant enzyme • PDE4B2 recombinant enzyme • FAM-Cyclic-3′, 5′-AMP • PDE assay buffer • Binding Agent • Binding Agent Diluent (cAMP)
• 1) Prepare FAM cAMP working solution: 20 μL of FAM-Cyclic-3′, 5′-AMP stock was added to 1980 μL of PDE assay buffer. The mixture was added to all wells at 25 μL/well. • 2) Prepare compound solution: the test compounds were dissolved in DMSO to make a 10 mM stock solution. The compound stock solution was diluted in DMSO to a 100× Top Dose diluent. 5 μL of 100× Top Dose diluent was added to 45 μL of PDE assay buffer to prepare a compound Top Dose working solution. Then, the compound working solution was subjected to double dilution with PDE assay buffer containing 10% DMSO to prepare compound working solutions of various concentrations. The compound working solutions were added to compound wells at 5 μL/well. 5 μL of PDE assay buffer containing 10% DMSO was added to each control well. • 3) Prepare PDE enzyme solution: PDE3A and PDE4B2 enzyme stock solutions were diluted to 150 pg/μL and 50 pg/μL, respectively, with PDE assay buffer, and added to all compound wells and Vehicle control wells at 20 μL/well. 20 μL of PDE assay buffer was added to Blank control wells. • 4) React at room temperature for 1 h. • 5) Prepare Binding Agent: 80 μL of binding agent was added to 7920 μL of binding agent diluent, and the mixture was mixed well and added to all wells at 100 μL/well. • 6) React at room temperature for 1 h. • 7) Read FP on Envision. • 8) Calculation formula for original data:
[formula] • FPS=sample FP • FPV=Vehicle control FP • FPB=Blank control FP.
Nonlinear regression analysis of log[dose]-inhibition rate was performed by graphpad and IC50 was calculated.

[1] = tested on: methacholine-induced bronchoconstriction; assay: Inhibitory effect on methacholine-induced bronchoconstriction in guinea pigs (WBP, Penh); assay type: in vivo, guinea pig; conditions: male guinea pigs, oral dose of 10 mg/kg, 6 h after drug exposure
Description: 2. Study on the Inhibitory Effect of Compounds on Methacholine-Induced Bronchoconstriction in Guinea Pigs
Male guinea pigs were selected as test animals in this study. The drug-treated group was orally administered with RPL554, compound 1 and compound 7 at a dose of 10 mg/kg, respectively, and the control group was administered with an equal dose of solvent. The animals were placed in a WBP instrument aerosol chamber 2 h, 4 h and 6 h after drug exposure. After the animals were adapted, they inhaled 300 μL of […] solution (0.5 mg/mL) by nebulization. After the end of the methacholine (Mch) exposure, Penh values were recorded continuously for 7 minutes. The percentage of bronchoconstriction inhibition by the compounds was calculated based on the Penh values.

[2] = tested on: guinea pig tracheal rings; assay: Experiment on guinea pig tracheal rings (carbachol constriction); conditions: 10 μM single dose; for OT50 (50% inhibition onset time) / RT50 (50% inhibition recovery time): carbachol-constricted tracheal rings; for inhibition at 10 µM: Cavia porcellus, 6.75 h
Description: 3. Experiment on Guinea Pig Tracheal Rings
Experimental method: guinea pig tracheal rings were placed in a specific culture medium (Krebs-Henseleit) and balanced under 1 g tension for 40 minutes; carbachol was added in an amount sufficient to achieve 100% constriction of the tracheal rings; […] contractile tension of the tracheal rings.

[3] = cited from earlier work
[4] = in vivo; cited from earlier work
PDE4 = conditions: cited from earlier work
[5] = class symbols, read-out: PDE 3A IC50
[6] = values in text, read-out: PDE 3 IC50

PDE3A recombinant enzyme, sequence (Q14432 whole entry): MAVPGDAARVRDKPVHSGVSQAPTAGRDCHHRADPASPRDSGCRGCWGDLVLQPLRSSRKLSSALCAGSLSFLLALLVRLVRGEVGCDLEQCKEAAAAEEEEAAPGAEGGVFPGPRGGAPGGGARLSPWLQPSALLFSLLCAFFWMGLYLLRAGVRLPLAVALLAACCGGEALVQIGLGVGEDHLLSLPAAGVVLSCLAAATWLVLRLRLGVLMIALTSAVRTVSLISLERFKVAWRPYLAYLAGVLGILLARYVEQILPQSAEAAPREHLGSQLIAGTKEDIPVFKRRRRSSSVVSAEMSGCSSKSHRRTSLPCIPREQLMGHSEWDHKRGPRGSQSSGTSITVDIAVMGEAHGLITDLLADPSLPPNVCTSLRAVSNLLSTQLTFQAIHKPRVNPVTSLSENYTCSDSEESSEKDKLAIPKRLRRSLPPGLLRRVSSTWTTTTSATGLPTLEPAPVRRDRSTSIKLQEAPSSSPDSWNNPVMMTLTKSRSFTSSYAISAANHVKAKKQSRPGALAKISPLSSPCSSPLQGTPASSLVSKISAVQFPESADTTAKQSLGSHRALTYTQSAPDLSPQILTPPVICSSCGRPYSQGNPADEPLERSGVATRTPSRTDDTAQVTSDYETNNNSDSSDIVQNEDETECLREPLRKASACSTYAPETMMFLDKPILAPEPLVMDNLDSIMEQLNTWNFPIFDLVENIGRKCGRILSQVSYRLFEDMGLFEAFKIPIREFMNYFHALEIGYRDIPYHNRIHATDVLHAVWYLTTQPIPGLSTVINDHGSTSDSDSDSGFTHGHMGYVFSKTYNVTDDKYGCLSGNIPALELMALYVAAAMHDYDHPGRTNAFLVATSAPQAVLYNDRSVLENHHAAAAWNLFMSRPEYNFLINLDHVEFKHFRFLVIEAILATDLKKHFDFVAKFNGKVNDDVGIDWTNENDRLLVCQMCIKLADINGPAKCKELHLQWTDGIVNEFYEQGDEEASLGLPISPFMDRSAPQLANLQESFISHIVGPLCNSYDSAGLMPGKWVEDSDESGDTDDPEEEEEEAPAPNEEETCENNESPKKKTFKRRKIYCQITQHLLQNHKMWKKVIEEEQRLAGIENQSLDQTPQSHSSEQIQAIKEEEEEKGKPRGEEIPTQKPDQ

SMILES: [2H]C([2H])([2H])Oc1cc2c(cc1OC)-c1c/c(=N\c3c(C)cc(C)cc3C)n(CCNC(N)=O)c(=O)n1CC2 [Compound 1, (E)-1-(2-(2-(mesitylimino)-10-methoxy-9-(methoxy-d3)-4-oxo-6,7-dihydro-2H-pyrimido[6,1-a]isoquinolin-3(4H)-yl)ethyl)urea]
IC50 (PDE3A recombinant enzyme; [5]): < 50 nM
IC50 (PDE3A recombinant enzyme; [6]): 0.15 nM
Inhibition rate on bronchoconstriction [1]: 69%

SMILES: COc1cc2c(cc1OC)-c1c/c(=N\c3c(C)cc(C(F)(F)F)cc3C)n(CCNC(N)=O)c(=O)n1CC2 [Compound 2, (E)-1-(2-(2-((2,6-dimethyl-4-(trifluoromethyl)phenyl)imino)-9,10-dimethoxy-4-oxo-6,7-dihydro-2H-pyrimido[6,1-a]isoquinolin-3(4H)-yl)ethyl)urea]
IC50 (PDE3A recombinant enzyme): 50 to 100 nM

IC50 (PDE3A recombinant enzyme; [5]): < 50 nM
SMILES: COc1cc2c(cc1OC)-c1c/c(=N\c3c(C)cc(C4CC4)cc3C)n(CCNC(N)=O)c(=O)n1CC2 [Compound 3, (E)-1-(2-(2-((4-cyclopropyl-2,6-dimethylphenyl)imino)-9,10-dimethoxy-4-oxo-6,7-dihydro-2H-pyrimido[6,1-a]isoquinolin-3(4H)-yl)ethyl)urea]

IC50 (PDE3A recombinant enzyme; [5]): 50 to 100 nM
SMILES: COc1cc2c(cc1OC)-c1c/c(=N\c3c(C)cc(F)cc3C)n(CCNC(N)=O)c(=O)n1CC2 [Compound 5, (E)-1-(2-(2-((4-fluoro-2,6-dimethylphenyl)imino)-9,10-dimethoxy-4-oxo-6,7-dihydro-2H-pyrimido[6,1-a]isoquinolin-3(4H)-yl)ethyl)urea]

SMILES: [2H]C([2H])([2H])Oc1cc2c(cc1OC)CCn1c-2c/c(=N\c2c(C)cc(C)cc2C)n(CCNC(N)=O)c1=O [Compound 7, (E)-1-(2-(2-(mesitylimino)-9-methoxy-10-(methoxy-d3)-4-oxo-6,7-dihydro-2H-pyrimido[6,1-a]isoquinolin-3(4H)-yl)ethyl)urea]
IC50 (PDE3A recombinant enzyme; [5]): < 50 nM
IC50 (PDE3A recombinant enzyme; [6]): 0.17 nM
Inhibition rate on bronchoconstriction [1]: 80%
OT50 (50% inhibition onset time) [2]: 19.97 min
RT50 (50% inhibition recovery time) [2]: >6.75 h
inhibition at 10 µM [2]: 75.9%

SMILES: COc1cc2c(cc1OC)-c1c/c(=N\c3c(C)cc(C)cc3C)n(CCNC(N)=O)c(=O)n1CC2 [RPL554, reference compound]
Inhibition rate on bronchoconstriction [1]: 35%
OT50 (50% inhibition onset time) [2]: 25.51 min
RT50 (50% inhibition recovery time) [2]: >6.75 h
inhibition at 10 µM [2]: 56.7%
solubility [3]: poor solubility
plasma clearance [4]: high plasma clearance
PDE4 inhibitory activity (PDE4): unsatisfactory
